Where two headings read alike, the source gives them in different places. Ends that are not written are not given here. * marks the point of attachment. Biotin = O=C1N[C@H]2[C@H](CS[C@H]2CCCCC(=O)*)N1
Experiments:
D54-MG = test: Chemotherapeutic agent cytotoxicity, CCK-8 assay; type: cell-based, Human; details: two to five days treatment
Description: (§1) A tissue culture method was optimized to test the effects of various chemotherapeutic agents on multiple cancer cell lines (see Table 1). Cells were plated on 96-well microtiter tissue culture plates at a density of approximately 1000-2000 cells per well, depending on the specific cell line. Cells were allowed to adhere twenty-four hours in a 37° C., humidified cell culture incubator supplied with five percent carbon dioxide. In order to achieve a dose-response curve for each drug in each cell line, cells were treated with decreasing concentrations of a specific cytotoxic compound for two to five days. Following treatment, the cytotoxic effect of the drug was quantified using the Cell Counting Kit-8 (CCK-8) (Dojindo Inc.) according to the manufacturer's instructions. In brief, following the treatment period with the cytotoxic drug, cells were incubated with CCK-8 reagent and incubated at 37° C. for one to four hours, depending on the specific cell type. After incubation, plates were read on a microplate reader at a wavelength of 490 nm. The IC50 of each drug was calculated from a X-Y scatter plot of the negative log concentration of drug versus mean optical density (Table 2).

SKMEL28 = test: Chemotherapeutic agent cytotoxicity, CCK-8 assay; type: cell-based, Human; details: two to five days treatment
Description: as §1

SKMEL31 = test: Chemotherapeutic agent cytotoxicity, CCK-8 assay; type: cell-based; details: Homo sapiens, 120 h, two to five days treatment
Description: as §1

U251 = test: Chemotherapeutic agent cytotoxicity, CCK-8 assay; type: cell-based; details: Homo sapiens, U-251, 120 h, two to five days treatment
Description: as §1

PC-3 = test: Chemotherapeutic agent cytotoxicity, CCK-8 assay; type: cell-based; details: Homo sapiens, 120 h, two to five days treatment
Description: as §1

U251 glioma flank tumors = test: Temodar plus chlorotoxin in glioma flank tumor model; type: in vivo, Nude mice; details: i.p., temodar 13.2 mg/kg, chlorotoxin 0.080 mg/kg
Description: The purpose of this study was to determine whether hydroxyurea or temodar combined with chlorotoxin were sufficient to inhibit tumor growth as indicated from in vitro studies with glioma cell lines. […] Combination treatment with chlorotoxin with hydroxyurea or temodar in mice with glioma flank tumors was compared to the treatment group of hydroxyurea or temodar alone and saline alone. Hydroxyurea and temodar dosage was based on the lowest dosage (10 mg/kg body weight) used in previous studies to determine clearance from the body in the treatment of sickle cell disease paradigm in nude mice (Iyamu et al. (2001) Chemotherapy 47, 270-278). […]
Mice with established flank tumors were each treated with 0.100 ml injection (i.p) of sterilized solutions consisting of either of saline, saline and hydroxyurea or temodar (13.2 mg/kg body weight), or saline, hydroxyurea or temodar (13.2 mg/kg) and chlorotoxin (0.080 mg/kg body weight). Tumor volume was calculated based on the measurements with the same set of calipers on the indicated days by determining the length×width×height of the tumor of non-anesthetized mice. […] Statistical significance was determined according to a one-way ANOVA test.

U251 and PC3 cells = details: alanine-substituted 9-mers versus native 9-mer
crayfish = test: Crayfish paralysis assay; type: in vivo; details: 10-mer peptides
[1] = tested on: PC3 human prostate cancer cells; type: binding
Text: In order to compare binding of the short scorpion toxins, the regions homologous to peptide 21 of small toxin and probable toxin LQH-8/6 were synthesized and biotinylated for analysis in the chlorotoxin binding assay (see Table 8 for amino acid sequences of the peptides).

D54MG Glioblastoma cells = details: for ^3H-Thymidine uptake ± SD (CPM): 24 hours incubation
Description: The purpose of this experiment was to determine if the proliferation D54MG Glioblastoma cells, as measured by ^3H-thymidine uptake, is effected by Peptide 21, a segment of the full chlorotoxin sequence. The sequence of peptide 21 and its relation to chlorotoxin is shown in the sequence below:
D54MG cells were plated in a 24 well plate at 100,000 cells/ml/well using five rows of four wells for each concentration. The cells were allowed to adhere in normal media for twenty-four hours at 37° C. and 5% carbon dioxide. TM-701 was diluted to a […] stock solution and added to each row at the concentrations of 0, 20, 80, 160 and 320 nM.
The cells and peptide 21 were allowed to incubate for 24 hours at 37° C. and 5% carbon dioxide. After twenty-four hours, the cells were rinsed two times with warm PBS. Normal media was added back to the cells at 1 ml/well. One μCi of ^3H-thymidine was added to each well (1 μl of 1 mCi/ml ^3H-thymidine to each well). The plate was incubated for two hours at 37° C. The media and thymidine were removed and the wells were rinsed with ice-cold phosphate-buffered saline three times. To each well was added 1 ml of 0.3 N NaOH. The plate was incubated in the 37° C. incubator for thirty minutes. Each well of 0.3 N NaOH was pipetted up and down three to four times and removed from the plate and the solution was placed in scintillation vials for counting. Scintillation fluid at four times the amount of sample was added to the vials (4 ml). Each vial was counted on the scintillation counter for one minute.

[2] = Homo sapiens, D54MG, 120 h, read-out: IC50
[3] = Homo sapiens, SK-MEL-28, 120 h, read-out: IC50
[4] = PC3 cells, biotinylated peptides

`O=c1[nH]cc(F)c(=O)[nH]1` [5-Fluorouracil, fluorouracil] gave an IC50 (D54-MG; [2]) of 1.5 µg/mL.

For `N.N.[Cl][Pt][Cl]` [Cisplatin, cis-diamminedichloroplatinum], the IC50 (D54-MG) was 10 µg/mL and the IC50 (SKMEL28) was 8 µg/mL.

Work on `COc1cccc2c1C(=O)c1c(O)c3c(c(O)c1C2=O)C[C@@](O)(C(=O)CO)C[C@@H]3O[C@H]1C[C@H](N)[C@H](O)[C@H](C)O1` [Doxorubicin, hydroxyl daunorubicin] yielded an IC50 (SKMEL31) of 0.035 µg/mL, an IC50 (U251) of 0.03 µg/mL and an IC50 (D54-MG; [2]) of 0.06 µg/mL. It also gave an IC50 (SKMEL28; [3]) of 0.04 µg/mL.

In the case of `NC(=O)NO` [Hydroxyurea, hyroxycarbamide], the IC50 (PC-3) is reported as 35000 µM.

Work on `CC(=O)O[C@H]1C(=O)[C@@]2(C)[C@H]([C@H](OC(=O)c3ccccc3)[C@]3(O)C[C@H](OC(=O)[C@H](O)[C@@H](NC(=O)c4ccccc4)c4ccccc4)C(C)=C1C3(C)C)[C@]1(OC(C)=O)CO[C@@H]1C[C@@H]2O` [Paclitaxel, paclitaxel] yielded an IC50 (SKMEL31) of 0.025 µM, an IC50 (U251) of 0.008 µM and an IC50 (D54-MG; [2]) of 0.0105 µM.

Work on `Cn1nnc2c(C(N)=O)ncn2c1=O` [Temodar, temozomide] yielded an IC50 (SKMEL31) of 150 µM, an IC50 (U251) of 150 µM and an IC50 (D54-MG; [2]) of 120 µM. The IC50 (SKMEL28; [3]) was 30 µM and the “growth of the xenografted tumor (percent change of tumor volume)” value (U251 glioma flank tumors) was “little effect”.

Biotin-TDHAMARKS [Peptide 21a-A4] was tested, and the “binding of the peptide to cells” value (U251 and PC3 cells) was “may be equal to or greater than chlorotoxin itself”.

In the case of Biotin-TTDHQMARKS [peptide 21], the paralysis of crayfish (crayfish) is reported as “effective”, the binding [1] is reported as 232.50 % of background levels and the “uptake of ^3H-thymidine, dose dependence” value (D54MG Glioblastoma cells; 0 to 320 nM) is reported as “decreases in a does-dependent manner”. The “^3H-Thymidine uptake ± SD (CPM)” value (D54MG Glioblastoma cells; 20 nM) was 7795 ± 634 CPM, the “^3H-Thymidine uptake ± SD (CPM)” value (D54MG Glioblastoma cells; 80 nM) was 7412 ± 630 CPM and the “^3H-Thymidine uptake ± SD (CPM)” value (D54MG Glioblastoma cells; 160 nM) was 6983 ± 329 CPM. The “^3H-Thymidine uptake ± SD (CPM)” value (D54MG Glioblastoma cells; 320 nM) was 5782 ± 886 CPM.

In the case of “TTDPQMSKK [Peptide 21ST, biotinylated region of small toxin homologous to peptide 21]”, the binding [1, 4] is reported as 225.26 % of background levels.

“TTDQQMTKK [Peptide 21LQ, biotinylated region of probable toxin LQH-8/6 homologous to peptide 21]” was tested, and the binding [1, 4] was 242.32 % of background levels.

With “negative peptide (GKCYGPQCLC; Chlorotoxin; listed as Leiurus quinquestriatus)” the binding [1, 4] was 110 % of background levels.

From patent US20060088899A1, “Combination chemotherapy with chlorotoxin” (priority 2002, published 2006)
